Measured values as given in patent publication US20230225990A1, “DIMETHYL SULFONE FOR TREATMENT OF CHRONICALLY HEAT STRESSED POULTRY” (Evonik Operations GmbH, priority 2020, published 2023).
Marks after values point to notes of the source that are not given here.

Key:
[1] = test system: male broilers subjected to chronic cyclic heat stress; experiment: Parameters in blood of birds sampled at d-23, d-25 and d-39; format: in vivo, broiler chickens (Ross 308); settings: for GSSG/GSH / Glutathione (GSH) / Oxidized glutathione (GSSG): erythrocytes; for Glutathione peroxidase / Heat shock protein 70 / Malondialdehyde / Super oxide dismutase: plasma; for Nitric oxide / T3 (triiodothyronine) / T3/T4 / T4 (thyroxine): serum
Description: Sampling of one bird per pen (with weight close to average weight of the pen) on d-23, d-25 and on d-39 (on d-25 and d-39, sampling starts after >3 h of heat stress that day; 108 birds in total) • malondialdehyde, HSP70 (Chicken Heat Shock Protein 70, Hsp-70 ELISA Kit) Cusabio Code CSB-E11196Ch), HSP90 (Chicken Heat Shock Protein 90, HSP-90 ELISA Kit; Cusabio Code CSB-E12873C), GPx, SOD in plasma; GSH/GSSG in erythrocytes; and T3, T4 and nitric oxide in serum • Breast muscle and liver: malondialdehyde, AOX (GPx, SOD), GSH/GSSG
For physiological measurements, time of sampling (representing the number of minutes between the beginning of heat stress and the precise moment of sampling of the bird that day), if appropriate, was included in the model as a covariable if significant as well. Orthogonal contrasts were applied to test for linear and quadratic effects upon incremental levels of DMS supplementation in the diet. Means are given as estimated marginal means (least square means). Means were separated using the Tukey post-hoc test. Differences were considered significant when p<0.05 and as a trend for significance when p<0.1.
Heat shock protein 70 and heat shock protein 90 were determined in plasma employing the competitive inhibition enzyme immunoassay technique (HSP70, Chicken Heat Shock Protein 70, Hsp-70 ELISA Kit; Cusabio Code CSB-E11196Ch) and the quantitative sandwich enzyme immunoassay technique (HSP90, Chicken Heat Shock Protein 90, HSP-90 ELISA Kit; Cusabio Code CSB-E12873C), respectively. Regarding HSP-90 very low absorbances were found and in most cases fell below the lowest standard dilution. Values were then typically less than 0.39 ng/mL, the minimum detectable dose as mentioned in the user manual. For that reason, no data for HSP-90 could be reported here. Opposite to that, HSP-70 worked properly and values were all above sensitivity of 0.125 ng/mL. No treatments effects on HSP-70 could be perceived on either sampling day, apart from a trend for linear reduction on d-23. […] It must be noted that large variation across samples was found on d-39. Thyroxine (T4) could not be detected on d-23, while higher values were found on d-25 and d-39. A trend for linear increase on d-39 by higher DMS dose was observed. […] It means that conversion efficiency was not altered by diet. Irrespective of treatment is the sharp reduction in circulating T3 levels as birds age and thus subjected for long period to heat stress. As indicated above, this can be regarded as an adaptation to reduce body metabolism and hitherto metabolic heat production, and apparently birds fed DMS seems to be less affected. Nitric oxide was not different across treatments at any sampling day. Further, interesting changes in malondialdehyde, a marker of lipid peroxidation, were found. […] The higher GSH in DMS-fed chickens thus promotes antioxidant function and redox homeostasis. However, no relation could be established between plasma malondialdehyde and erythrocyte glutathione (FIG. 17).

[2] = test system: male broilers subjected to chronic cyclic heat stress; experiment: Rectal temperature and panting frequency during heat stress; format: in vivo, broiler chickens (Ross 308)
Description: The finisher period started at d-21, and the chronic cyclic heat stress (HS) protocol was applied from d-24 until d-39. Starting from d-24, the temperature was increased from 22° C. to 34° C. for 6 hours per day (from 9:00 to 15:00) with relative air humidity (RH) between 52 and 58%. From 8:00 to 9:00, the temperature was increased from 22° C. to 34° C., and from 15:00 to 16:00, the temperature was decreased from 34° C. to 22° C. The rest of the day the temperature was 22° C. The room was equipped with heaters with thermostats, and air circulators to enable the desired temperature and RH to be maintained, providing sufficient ventilation and air conditions. RH was adjusted with manual spraying of water on stable walls, periodically. The temperature and the RH were recorded at 10-min intervals with a dry bulb thermo-hygrometer (Escort RH iLog, Escort Verification Technologies Inc., Buchanan, United States).
Rectal temperature and panting frequency (video analyses) (for 2 selected birds per pen on 3 days: d-24, d-31 and d-38, measured after 4 h of heat stress that day)

[3] = 0.1% DMS in diet (T2), Total, all days
[4] = 0.1% DMS in diet (T2), d-24, during heat stress
[5] = 0.1% DMS in diet (T2), d-31, during heat stress
[6] = 0.1% DMS in diet (T2), d-38, during heat stress
[7] = 0.2% DMS in diet (T3), Total, all days
[8] = 0.2% DMS in diet (T3), d-24, during heat stress
[9] = 0.2% DMS in diet (T3), d-31, during heat stress
[10] = 0.2% DMS in diet (T3), d-38, during heat stress

SMILES: CS(C)(=O)=O [DMS, dimethyl sulfone]
- GSSG/GSH ([1]; 0.1% DMS in diet (T2), d-23): 0.015
- Glutathione (GSH) ([1]; 0.1% DMS in diet (T2), d-23): 1.07 µmol/mL
- Oxidized glutathione (GSSG) ([1]; 0.1% DMS in diet (T2), d-23): 0.017 µmol/mL
- GSSG/GSH ([1]; 0.1% DMS in diet (T2), d-25): 0.017^a
- Glutathione (GSH) ([1]; 0.1% DMS in diet (T2), d-25): 0.59 µmol/mL
- Oxidized glutathione (GSSG) ([1]; 0.1% DMS in diet (T2), d-25): 0.010 µmol/mL
- GSSG/GSH ([1]; 0.1% DMS in diet (T2), d-39): 0.017
- Glutathione (GSH) ([1]; 0.1% DMS in diet (T2), d-39): 0.64^ab μmol/mL
- Oxidized glutathione (GSSG) ([1]; 0.1% DMS in diet (T2), d-39): 0.011 µmol/mL
- Glutathione peroxidase ([1]; 0.1% DMS in diet (T2), d-23): 0.82 U/mL
- Heat shock protein 70 ([1]; 0.1% DMS in diet (T2), d-23): 1.69 ng/mL
- Malondialdehyde ([1]; 0.1% DMS in diet (T2), d-23): 14.4 nmol/mL
- Super oxide dismutase ([1]; 0.1% DMS in diet (T2), d-23): 84.1 % inhibition
- Glutathione peroxidase ([1]; 0.1% DMS in diet (T2), d-25): 0.84 U/mL
- Heat shock protein 70 ([1]; 0.1% DMS in diet (T2), d-25): 1.07 ng/mL
- Malondialdehyde ([1]; 0.1% DMS in diet (T2), d-25): 14.3 nmol/mL
- Super oxide dismutase ([1]; 0.1% DMS in diet (T2), d-25): 81.3 % inhibition
- Glutathione peroxidase ([1]; 0.1% DMS in diet (T2), d-39): 0.97 U/mL
- Heat shock protein 70 ([1]; 0.1% DMS in diet (T2), d-39): 2.77 ng/mL
- Malondialdehyde ([1]; 0.1% DMS in diet (T2), d-39): 15.7 nmol/mL
- Super oxide dismutase ([1]; 0.1% DMS in diet (T2), d-39): 79.5 % inhibition
- Nitric oxide ([1]; 0.1% DMS in diet (T2), d-23): 6.02 µmol/L
- T3 (triiodothyronine) ([1]; 0.1% DMS in diet (T2), d-23): 2.43^a μg/L
- Nitric oxide ([1]; 0.1% DMS in diet (T2), d-25): 4.31 µmol/L
- T3 (triiodothyronine) ([1]; 0.1% DMS in diet (T2), d-25): 1.74 µg/L
- T3/T4 ([1]; 0.1% DMS in diet (T2), d-25): 0.342
- T4 (thyroxine) ([1]; 0.1% DMS in diet (T2), d-25): 0.53 µg/dL
- Nitric oxide ([1]; 0.1% DMS in diet (T2), d-39): 3.84 µmol/L
- T3 (triiodothyronine) ([1]; 0.1% DMS in diet (T2), d-39): 1.10 µg/L
- T3/T4 ([1]; 0.1% DMS in diet (T2), d-39): 0.193
- T4 (thyroxine) ([1]; 0.1% DMS in diet (T2), d-39): 0.60 µg/dL
- GSSG/GSH ([1]; 0.2% DMS in diet (T3), d-23): 0.018
- Glutathione (GSH) ([1]; 0.2% DMS in diet (T3), d-23): 1.25 µmol/mL
- Oxidized glutathione (GSSG) ([1]; 0.2% DMS in diet (T3), d-23): 0.023 µmol/mL
- GSSG/GSH ([1]; 0.2% DMS in diet (T3), d-25): 0.013^b
- Glutathione (GSH) ([1]; 0.2% DMS in diet (T3), d-25): 0.70 µmol/mL
- Oxidized glutathione (GSSG) ([1]; 0.2% DMS in diet (T3), d-25): 0.009 µmol/mL
- GSSG/GSH ([1]; 0.2% DMS in diet (T3), d-39): 0.015
- Glutathione (GSH) ([1]; 0.2% DMS in diet (T3), d-39): 0.67^a μmol/mL
- Oxidized glutathione (GSSG) ([1]; 0.2% DMS in diet (T3), d-39): 0.010 µmol/mL
- Glutathione peroxidase ([1]; 0.2% DMS in diet (T3), d-23): 0.92 U/mL
- Heat shock protein 70 ([1]; 0.2% DMS in diet (T3), d-23): 1.00 ng/mL
- Malondialdehyde ([1]; 0.2% DMS in diet (T3), d-23): 14.2 nmol/mL
- Super oxide dismutase ([1]; 0.2% DMS in diet (T3), d-23): 80.4 % inhibition
- Glutathione peroxidase ([1]; 0.2% DMS in diet (T3), d-25): 0.86 U/mL
- Heat shock protein 70 ([1]; 0.2% DMS in diet (T3), d-25): 1.08 ng/mL
- Malondialdehyde ([1]; 0.2% DMS in diet (T3), d-25): 13.2 nmol/mL
- Super oxide dismutase ([1]; 0.2% DMS in diet (T3), d-25): 84.1 % inhibition
- Glutathione peroxidase ([1]; 0.2% DMS in diet (T3), d-39): 1.09 U/mL
- Heat shock protein 70 ([1]; 0.2% DMS in diet (T3), d-39): 4.23 ng/mL
- Malondialdehyde ([1]; 0.2% DMS in diet (T3), d-39): 14.9 nmol/mL
- Super oxide dismutase ([1]; 0.2% DMS in diet (T3), d-39): 87.1 % inhibition
- Nitric oxide ([1]; 0.2% DMS in diet (T3), d-23): 6.06 µmol/L
- T3 (triiodothyronine) ([1]; 0.2% DMS in diet (T3), d-23): 2.06^b μg/L
- Nitric oxide ([1]; 0.2% DMS in diet (T3), d-25): 4.48 µmol/L
- T3 (triiodothyronine) ([1]; 0.2% DMS in diet (T3), d-25): 1.72 µg/L
- T3/T4 ([1]; 0.2% DMS in diet (T3), d-25): 0.351
- T4 (thyroxine) ([1]; 0.2% DMS in diet (T3), d-25): 0.50 µg/dL
- Nitric oxide ([1]; 0.2% DMS in diet (T3), d-39): 3.14 µmol/L
- T3 (triiodothyronine) ([1]; 0.2% DMS in diet (T3), d-39): 1.12 µg/L
- T3/T4 ([1]; 0.2% DMS in diet (T3), d-39): 0.180
- T4 (thyroxine) ([1]; 0.2% DMS in diet (T3), d-39): 0.63 µg/dL
- Panting [2, 3]: 141 #/min
- Rectal temperature [2, 3]: 42.6^ab ° C.
- Panting [2, 4]: 119^ab #/min
- Rectal temperature [2, 4]: 42.3 °C
- Panting [2, 5]: 158 #/min
- Rectal temperature [2, 5]: 42.9 °C
- Panting [2, 6]: 147 #/min
- Rectal temperature [2, 6]: 42.7 °C
- Panting [2, 7]: 137 #/min
- Rectal temperature [2, 7]: 42.5^b ° C.
- Panting [2, 8]: 112^b #/min
- Rectal temperature [2, 8]: 42.3 °C
- Panting [2, 9]: 143 #/min
- Rectal temperature [2, 9]: 42.6 °C
- Panting [2, 10]: 152 #/min
- Rectal temperature [2, 10]: 42.6 °C
